Results on 21 compounds are retold here after patent US20100004159A1, “SUBSTITUTED IMIDAZOLONE DERIVATIVES, PREPARATIONS AND USES” (GENFIT, priority 2006, published 2010).

What is called melting point is the temperature of the solid-liquid transition. As to `CCCCC1=NC(CC)(CC)C(=O)N1Cc1ccc(-c2cc(OC(C)(C)C(=O)O)ccc2F)cc1` [Compound 69], the melting point came out at 62 °C.
In turn, `CCCCC1=NC2(CCCCC2)C(=O)N1Cc1ccc(-c2cccc(OC(C)C(=O)O)c2)c(C)c1` (stereo not drawn) [Compound 70, 2-butyl-1-[(3′-((1-carboxy-1-methylmethyl)oxy)-3-methyl-biphenyl-4-yl)methyl]-4-spirocyclohexyl-1H-imidazol-5(4H)one] returned a melting point of 81 °C.
As for `CCCCC1=NC2(CCCCC2)C(=O)N1Cc1ccc(-c2cccc(OC(CC)C(=O)O)c2)c(C)c1` (stereo not drawn) [Compound 71, 2-butyl-1-[(3′-((1-carboxy-1-ethylmethyl)oxy)-3-methyl-biphenyl-4-yl)methyl]-4-spirocyclohexyl-1H-imidazol-5(4H)one], the figure is 77 °C; as for `CCCCC1=NC2(CCCCC2)C(=O)N1Cc1ccc(-c2cccc(OC(C)(C)C(=O)O)c2)c(C)c1` [Compound 72], 140 °C.
As for `CCCCC1=NC2(CCCC2)C(=O)N1Cc1cccc(-c2cccc(OC(C)(C)C(=O)O)c2)c1` [Compound 74, 2-butyl-1-[(3′-((1-carboxy-1,1-dimethylmethyl)oxy)biphenyl-3-yl)methyl]-4-spirocyclopentyl-1H-imidazol-5(4H)-one], the figure is 70 °C; as for `CCCCC1=NC2(CCCC2)C(=O)N1Cc1cccc(-c2ccccc2OC(C)(C)C(=O)O)c1` [Compound 75, 2-butyl-1-[(2′-((1-carboxy-1,1-dimethylmethyl)oxy)biphenyl-3-yl)methyl]-4-spirocyclopentyl-1H-imidazol-5(4H)-one], 167 °C.
The figure for `CCCCC1=NC2(CCCC2)C(=O)N1Cc1ccc(-c2cc(OC(C)(C)C(=O)O)ccc2CCC)cc1` [Compound 76, 2-butyl-1-[(3′-((1-carboxy-1,1-dimethylmethyl)oxy)-6′-propyl-biphenyl-4-yl)methyl]-4-spirocyclopentyl-1H-imidazol-5(4H)-one] is < 60 °C; for `CCCCC1=NC2(CCCC2)C(=O)N1Cc1cccc(-c2ccc(OC(C)(C)C(=O)O)cc2)c1` [Compound 77, 2-butyl-1-[(4′-((1-carboxy-1,1-dimethylmethyl)oxy)biphenyl-3-yl)methyl]-4-spirocyclopentyl-1H-imidazol-5(4H)-one] it is 170 °C.
The compound `CCCCC1=NC2(CCCC2)C(=O)N1Cc1ccc(-c2cccc(OC(C)(C)C(=O)O)c2F)cc1` [Compound 78, 2-butyl-1-[(3′-((1-carboxy-1,1-dimethylmethyl)oxy)-2′-fluoro-biphenyl-4-yl)methyl]-4-spirocyclopentyl-1H-imidazol-5(4H)-one] showed a melting point of 162 °C.
The figure for `CCCCC1=NC2(CCCC2)C(=O)N1Cc1ccc(-c2ccc(CC(C)C)c(OC(C)(C)C(=O)O)c2)cc1` [Compound 81, 2-butyl-1-[(3′-((1-carboxy-1,1-dimethylmethyl)oxy)-4′-isobutyl-biphenyl-4-yl)methyl]-4-spirocyclopentyl-1H-imidazol-5(4H)-one] is 78 °C.
As for `CCCCC1=NC2(CCCC2)C(=O)N1Cc1ccc(-c2cc(OC(C)C(=O)O)ccc2CCC)cc1` (stereo not drawn) [Compound 83, 2-butyl-1-[(3′-((1-carboxy-1-methylmethyl)oxy)-6′-propyl-biphenyl-4-yl)methyl]-4-spirocyclopentyl-1H-imidazol-5(4H)-one], the figure is 76 °C; as for `CCCCC1=NC2(CCCC2)C(=O)N1Cc1ccc(-c2cc(OCC(=O)O)ccc2CCC)cc1` [Compound 84, 2-butyl-1-[(3′-((1-carboxymethyl)oxy)-6′-propyl-biphenyl-4-yl)methyl]-4-spirocyclopentyl-1H-imidazol-5(4H)-one], 76 °C.
The figure for `CCCCC1=NC2(CCCC2)C(=O)N1Cc1ccc(-c2cc(OC(CC)C(=O)O)ccc2CCC)cc1` (stereo not drawn) [Compound 85, 2-butyl-1-[(3′-((1-carboxy-1-ethylmethyl)oxy)-6′-propyl-biphenyl-4-yl)methyl]-4-spirocyclopentyl-1H-imidazol-5(4H)-one] is 74 °C; for `CCCCC1=NC2(CCCC2)C(=O)N1Cc1ccc(-c2cc(OC(C(=O)O)C(C)C)ccc2CCC)cc1` (stereo not drawn) [Compound 86, 2-butyl-1-[(3′-((1-carboxy-1-(1,1-dimethylmethyl)methyl)oxy)-6′-propyl-biphenyl-4-yl)methyl]-4-spirocyclopentyl-1H-imidazol-5(4H)-one] it is 81 °C; for `CCCCC1=NC2(CCCC2)C(=O)N1Cc1ccc(-c2cc(OC(C)(C)C(=O)O)ccc2CC(C)C)cc1` [Compound 87, 2-butyl-1-[(3∝-((1-carboxy-1,1-dimethylmethyl)oxy)-6′-isobutyl-biphenyl-4-yl)methyl]-4-spirocyclopentyl-1H-imidazol-5(4H )-one] it is < 50 °C.
For the compound `CCCCC1=NC2(CCCC2)C(=O)N1Cc1ccc(-c2cc(OC(C)(C)C(=O)O)ccc2C#N)cc1` [Compound 89, 2-butyl-1-[(3′-((1-carboxy-1.1-dimethylmethyl)oxy)-6′-cyano-biphenyl-4-yl)methyl]-4-spirocyclopentyl-1H-imidazol-5(4H)-one], the melting point was < 50 °C.
The figure for `CCCCC1=NC2(CCCC2)C(=O)N1Cc1ccc(-c2cccc(OC(C)(C)C(=O)O)c2)c(OC)c1` [Compound 90] is 157 °C; for `CCCCC1=NC2(CCCC2)C(=O)N1Cc1ccc(-c2cccc(OC(C)(C)C(=O)O)c2)cc1C` [Compound 91] it is 160 °C; for `CCCCC1=NC2(CCCC2)C(=O)N1Cc1ccc(-c2ccc([N+](=O)[O-])c(OC(C)(C)C(=O)O)c2)cc1` [Compound 95, 2-butyl-1-[(3′-((1-carboxy-1,1-dimethylmethyl)oxy)-4′-nitro-biphenyl-4-yl)methyl]-4-spirocyclopentyl-1H-imidazol-5(4H)-one] it is < 50 °C.
Take `CCCCC1=NC2(CCCC2)C(=O)N1Cc1ccc(-c2ccc(CCC)c(OC(C)(C)C(=O)O)c2)cc1` [Compound 98, 2-butyl-1-[(3′-((1-carboxy-1,1-dimethylmethyl)oxy)-4′-propyl-biphenyl-4-yl)methyl]-4-spirocyclopentyl-1H-imidazol-5(4H)-one]: the melting point amounted to 74 °C.
`CCCCC1=NC2(CCCC2)C(=O)N1Cc1ccc(-c2cccc(OC(CC)c3nnn[nH]3)c2)cc1` (stereo not drawn) [Compound 99, 2-butyl-1-[(3′-((1-(tetrazol-5-yl)-1-ethylmethyl)oxy)-biophenyl-4-yl)methyl]-4-spirocyclopentyl-1H-imidazol-5(4H)-one] showed a melting point of 76 °C.
